Among the data in PubChem BioAssay (NCI) are TGI and GI50 values, retold here.

What all share (test): growth of human tumour cells (NCI), 48 h
Assay [1] has as its system HL-60(TB) leukemia.
Assay [2] deals with TK-10 renal.
Assay [3] concerns SK-MEL-2 melanoma.
For assay [4], the system named is ACHN renal.
Assay [5] deals with EKVX NSCLC.
For assay [6], the system named is OVCAR-3 ovarian.
Assay [7] relates to SF-295 CNS.
Assay [8] has as its system SR leukemia.
For assay [9], the system named is DU-145 prostate.
Assay [10] has as its system T-47D breast.

Where “and” joins values, the source holds several entries; their conditions need not be identical. Identical values can stand only once.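 Cells were grown in 96-well plates and exposed to each compound for 48 hours at five concentrations; endpoints were interpolated linearly between bracketing concentrations, or set to the highest concentration if not reached. At the GI50, growth is halved. TGI denotes the concentration required for complete inhibition of growth.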 Some results are limits rather than exact numbers.

As for `O=C(Nc1ccc([N+](=O)[O-])cc1C(=O)O)c1ccc([N+](=O)[O-])cc1`, the TGI in [1] was 56.7 µM; in [2], > 100 µM; in [3], 92.2 µM; in assay [4] it was > 100 µM; in assay [5], > 100 µM; in [6] it was > 100 µM. The TGI in [7] is > 100 µM.

With `CCC[CH2][Sn]1([CH2]CCC)[O]C(=O)c2cccc(OC)c2[O]1`, the GI50 in [1] was 0.106 µM; in [2], 0.316 µM; in assay [3] it was 0.156 µM; in assay [4] it was 0.271 µM; in assay [5] it was 1.31 µM; in assay [6], 0.626 µM. Moreover, the GI50 in [7] was 1.08 µM. Besides, the TGI in [1] is 0.98 µM; in assay [2], 0.829 µM; in [3] it was 0.574 µM; in assay [4], 0.753 µM; in assay [5], 2.7 µM; in assay [6], 2.01 µM. The compound also had a TGI in [7] of 2.27 µM.

As to `COCOCc1cc(OCc2ccccc2)c(OC)cc1Br`, the TGI in assay [2], in assay [3], in assay [8], in assay [4], in assay [5] and in assay [6] was > 100 µM each time. In assay [7], the TGI is > 100 µM.

As to `COc1ccc(/C(=N\O)c2cc(OC)c(OC)c(OC)c2)c(OC)c1N`, the GI50 was 2.6 µM in assay [1]; 4.02 µM in assay [9]; > 100 µM in assay [10]; > 100 µM in assay [2]; 7.48 µM in assay [3]; 7.68 µM in assay [4]. Also, the figures for the GI50 in assay [5], in assay [6] and in assay [7] were 5.96 µM, 2.53 µM and 2.37 µM, respectively. Besides, the TGI in assay [1] is 6.55 µM; in assay [9], > 100 µM; in [10] it was > 100 µM; in [2] it was > 100 µM; in assay [3], > 100 µM; in assay [4], > 100 µM. In addition, the TGI in assay [5] was > 100 µM; in assay [6], 7.8 µM; in [7], > 100 µM.

Turning to `COc1cc2c3c(n(CCCCNC(=O)OCC4c5ccccc5-c5ccccc54)c(=O)c2cc1OC)-c1cc2c(cc1C3=O)OCO2`, the GI50 in assay [9] is 8.04 µM; in [10], 95.8 µM; in assay [2] it was 56.3 µM; in assay [3], 70.4 µM; in assay [4] it was 5.8 µM; in [5] it was 87.2 µM. Also, the values for the GI50 in [6] and in assay [7] were 19.8 µM and > 100 µM, respectively. Besides, the TGI in assay [9] is > 100 µM; in assay [10] it was > 100 µM; in assay [2] it was > 100 µM; in assay [3] it was > 100 µM; in assay [4] it was 50.4 µM; in assay [5], > 100 µM. The TGI was 62.5 µM in [6] and > 100 µM in assay [7].

With `COC(=O)c1oc2c(O)c(OC)c(Br)cc2c1C`, the GI50 in assay [2] was 18.3 µM; in assay [3] it was 56.2 µM; in [8], 0.354 µM; in assay [4], 20.2 µM; in [5] it was 23.8 µM; in [6], 23.6 µM. Moreover, the GI50 in [7] is 31 µM. For the same compound, the TGI in assay [2] is 40 µM; in [3], > 100 µM; in assay [8], 18.2 µM; in assay [4] it was 36.2 µM; in assay [5], 49.1 µM; in assay [6] it was 43.5 µM. The compound also returned a TGI in assay [7] of 70.2 µM.

Turning to `COc1cc2c3c(n(CCCNC(=O)OCC4c5ccccc5-c5ccccc54)c(=O)c2cc1OC)-c1cc2c(cc1C3=O)OCO2`, the GI50 in assay [1] was > 81.2 µM; in assay [9], > 100 µM; in assay [10], > 100 µM; in [2], > 56.2 µM; in [3] it was 45.5 µM; in assay [4] it was 0.376 µM. The GI50 in [5] was > 100 µM; in [6] it was > 100 µM; in assay [7], 0.751 µM. Further, the TGI was > 100 µM in assay [1]; > 100 µM in assay [9]; > 100 µM in assay [10]; > 100 µM in [2]; > 100 µM in assay [3]; 6.25 µM in [4]. Further, the TGI in assay [5], in assay [6] and in [7] was > 100 µM each time.

In the case of `C/C1=C\CC[C@@]2(C)O[C@@H]2C[C@@H]2[C@H](C/C(C)=C/CC1)OC(=O)C21CCN=N1` (stereo partly drawn), the TGI in assay [1] was > 100 µM; in [9], > 100 µM; in assay [10] it was > 100 µM; in [2], > 100 µM; in [3] it was > 100 µM; in assay [4] it was 75 µM and > 100 µM. In addition, the TGI was > 100 µM in assay [5]; > 100 µM in assay [6]; 75 µM and > 100 µM in [7]. Further, the GI50 in assay [9], in assay [2], in assay [3], in assay [4], in [5] and in [6] was > 100 µM throughout. In addition, the GI50 in assay [7] is > 100 µM.

Take `CCOCC(=O)N[C@H]1CCc2cc(OC(=O)COCC)c(OC)c(OC)c2-c2ccc(SC)c(=O)cc21`: the TGI in [1] is 0.0313 µM and 0.0326 µM; in [2], > 100 µM; in assay [4] it was > 100 µM; in assay [5], > 100 µM; in assay [6], 0.0166 µM. For the same compound, the GI50 is 0.0315 µM in assay [9]; 14.9 µM in assay [2]; > 100 µM in assay [3]; 0.0831 µM in assay [4]; 32.1 µM in [5]; 0.0198 µM in assay [7].

On to `N#CCCN(CCC#N)c1ccc(/C=N\c2nc(-c3ccccc3)cs2)cc1`, for which the TGI in [1], in assay [2], in assay [3], in assay [4], in [5] and in assay [6] was > 100 µM throughout. In addition, the TGI in assay [7] was > 100 µM.
